“Also recorded” adds a separate entry of the source. Like-named read-outs stand apart in the source and are kept apart here.
Assays:
[1] = solubility of Pa derivatives compared to Pa; assay type: physicochemical
TDI FGFR3 [2] = molecular target: T1, TDI FGFR3 (Homo sapiens, UniProt P22607, Y373C); assay: cell-based translocation assay (ring spot count, high-content imaging); conditions: for inhibition of FGFR3 activation (in words): cells stably expressing SH2(SH2B)-RrGFP and TDI FGFR3
Protocol: (§2) PKC412 was prepared as a 6% (w/w) stock in DMSO. Live-cell imaging was performed at 37° C. under humidified conditions in a 5% CO2 incubator.
(§3) For high-content screening, all steps of sample-plate preparation, including compound treatment, fixation and plate washing, were fully automated and were performed using a Bio-Tek EL405uv system (Bio-Tek Instruments, Inc., Winooski, Vt., USA). U2OS cells stably expressing TDI FGFR3 and SI-12-RrGFP were seeded at a density of 4×10^3 cells/well in black 96-well Packard Viewplates, incubated overnight in complete medium at 37° C. in a CO2 incubator, and then transferred to 100 μl serum-free medium containing PKC412 or plant extract. The final DMSO concentration was 1%. After incubating for 1 hour at 37° C. in a CO2 incubator, cells were fixed with 4.5% formaldehyde and cell nuclei were labeled with a 2 μg/ml Hoechst stain solution (Sigma-Aldrich).
(§4) Cell images were automatically obtained using an ArrayScan VTI HCS Reader (Cellomics, Pittsburgh, Pa., USA). Filter sets appropriate for detecting the two fluorophores were used, and a 20×0.4 numerical aperture microscope objective was used for imaging. The Compartmental Analysis BioApplication (Cellomics) was used to analyze the images after optimization of the application's protocol settings. For these analyses, the Compartmental Analysis used the Hoechst-labeled nuclei to identify individual cells, and the nucleus (Circle) and cytoplasmic area (Ring) of the cells were defined by parameter settings in the software. The GFP spots in the Ring region were defined and the spot numbers (Ring Spot Count) and spot intensity (Ring Spot Intensity) were quantified by the software.

TDI FGFR3 [3] = molecular target: T1, TDI FGFR3
Protocol: as §2, §3, §4

KMS-11 cells = assay: KMS-11 cell proliferation assay (WST-1); assay type: cell-based, human; conditions: FGFR3-dependent growth (Y373C FGFR3)
Protocol: Cell proliferation was determined by a colorimetric assay of cell viability based on the cleavage of the tetrazolium salt WST-1 (Roche) by mitochondrial dehydrogenases. Cells were grown in serum-free conditions for 24 h and then were seeded in 96-well plates at a density of 50,000 cells/well in RPMI. Cells were incubated with 1 nM aFGF and 50 μg/ml heparin and various doses of plant extracts in 200 μl RPMI at a final concentration of 1% DMSO. Plates were incubated for 72 h at 37° C., 5% CO2. The WST-1 assay was performed according to the manufacturer's instructions. The absorbance of the formazan dye formed, which correlates with the number of metabolically active cells in the culture, was measured at 450 nm and 690 nm 1 h after adding the reagent. Each experimental condition was performed in triplicate.
The effects of hit 4, hit 4-1, and hit 4-2 were examined on the growth of human myeloma cell line KMS-11 […] expressing TDI FGFR3. KMS-11 cells were stimulated with aFGF/heparin and incubated with DMSO negative control, PKC412 positive control, or 10 μg/ml and 100 μg/ml doses of each tested plant extract. Cell growth was measured as described above.
Fractions were analyzed for their ability to inhibit the FGFR3 activity-dependent growth of human myeloma cell line KMS-11 as described above in Example 3.

FGFR3^ACH/ACH mice = assay: treatment of achondroplasia mice; assay type: in vivo; conditions: 0.09 mg/g/mouse for 7 weeks from 7 days of age
Protocol: Femurs of mice were dissected and the flesh was removed. The lengths of the femurs were measured using a millimetre-scale calliper ruler.
(§1) FGFR3^ACH/ACH mice beginning at 7 days of age were treated once-daily with 0.2 mg/g/mouse plant active fractions F4 and F4-IS11 by gavage in 200 μl PBS for 4 or 7 weeks. Control wild type littermates (WT) and FGFR3^ACH/ACH mice were treated with vehicle control. In additional studies, mice were treated with 0.09 mg/g/mouse purified Pa or vehicle control in a similar manner. Body weight and body length were measured weekly.
Skeletons were analyzed by […] (Skyscan 1076 system, Bruker, Brussels, Belgium) as described above.

WT mice = assay: treatment of wild-type mice with Pa; assay type: in vivo; conditions: 0.09 mg/g/mouse for 7 weeks from 7 days of age
Protocol: as §1
As mentioned above, Pa was identified as an active compound in the A. viridis extract by means of the method set forth above in Example 4. WT and FGFR3^ACH mice at 7 days of age were treated with vehicle (DMSO) or with 0.09 mg/g/mouse Pa for 7 weeks. The body weight of treated mice was measured weekly.

T1 sequence (P22607 23-806 Y373C): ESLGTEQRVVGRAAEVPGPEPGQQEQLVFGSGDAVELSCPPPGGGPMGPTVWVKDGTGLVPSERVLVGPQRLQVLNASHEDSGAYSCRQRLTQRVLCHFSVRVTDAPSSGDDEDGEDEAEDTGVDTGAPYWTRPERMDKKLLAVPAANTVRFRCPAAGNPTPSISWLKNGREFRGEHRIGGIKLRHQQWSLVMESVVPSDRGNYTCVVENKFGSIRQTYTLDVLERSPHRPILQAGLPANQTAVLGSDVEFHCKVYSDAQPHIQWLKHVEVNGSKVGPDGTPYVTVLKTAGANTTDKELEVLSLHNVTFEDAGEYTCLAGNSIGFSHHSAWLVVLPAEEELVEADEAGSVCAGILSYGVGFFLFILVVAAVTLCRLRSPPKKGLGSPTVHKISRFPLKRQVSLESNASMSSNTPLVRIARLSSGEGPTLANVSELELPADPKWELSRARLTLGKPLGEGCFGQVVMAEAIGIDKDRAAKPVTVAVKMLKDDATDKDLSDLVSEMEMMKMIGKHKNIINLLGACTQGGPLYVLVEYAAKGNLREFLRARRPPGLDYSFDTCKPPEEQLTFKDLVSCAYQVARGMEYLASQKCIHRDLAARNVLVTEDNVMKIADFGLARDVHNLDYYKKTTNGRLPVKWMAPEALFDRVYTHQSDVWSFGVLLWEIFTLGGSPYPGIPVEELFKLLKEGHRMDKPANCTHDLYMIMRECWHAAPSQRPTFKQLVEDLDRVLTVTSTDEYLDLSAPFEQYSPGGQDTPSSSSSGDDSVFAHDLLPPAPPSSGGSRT

| Compound | inhibition of FGFR3 activation (in words) (TDI FGFR3 [2]) | further results |
| --- | --- | --- |
| HCl-N-pheophorbide a [HCl-N-Pa] | comparable FGFR3 inhibition activities | solubility as compared to Pa [1]: enhanced solubility |
| pyropheophorbide-a methyl ester [reference compound] | had FGFR3 inhibition activity | – |
| NCC(=O)CCC(=O)O [5-aminolevulinic acid, reference compound] | did not | – |
| Oc1cccc(-c2c3nc(c(-c4cccc(O)c4)c4ccc([nH]4)c(-c4cccc(O)c4)c4nc(c(-c5cccc(O)c5)c5ccc2[nH]5)CC4)C=C3)c1 [temoporfin] | – | inhibition of FGFR3 activation (in words) (TDI FGFR3 [3]): had FGFR3 inhibition activity |
| Pyropheophorbide a [PyroPa] | inhibit FGFR3 activation; also recorded: stronger than any of the tested photosensitizers | – |
| pheophorbide a [Pa] | inhibit FGFR3 activation | inhibition of KMS-11 cell proliferation (KMS-11 cells): inhibited FGFR3-dependent cell proliferation; body weight vs DMSO-treated mice (FGFR3^ACH/ACH mice): increased body weight; body weight vs DMSO-treated mice (WT mice): increased body weight |
| Na-pheophorbide a [NA-Pa] | comparable FGFR3 inhibition activities | solubility as compared to Pa [1]: enhanced solubility |
| CO[C@@H]1[C@H](N(C)C(=O)c2ccccc2)C[C@H]2O[C@]1(C)n1c3ccccc3c3c4c(c5c6ccccc6n2c5c31)C(=O)NC4 [PKC412, reference compound] | – | time to disappearance of punctate GFP signals after treatment (TDI FGFR3 [2]; SH2(SH2B)-RrGFP and TDI FGFR3 expressing cells, not seen with DMSO): ≤ 1 h |
| chlorophyllin A [reference compound] | had FGFR3 inhibition activity | – |

Source: patent US11630102B2, “Composition and method for modulating fibroblast growth factor receptor 3 activation” (ACADEMIA SINICA, priority 2017, dated 2023)
